One may read the IC50 as the concentration at which inhibition is half-maximal.

This passage reports IC50 results from patent US11021486B2, “Coumarin-like cyclic compound as MEK inhibitor and use thereof” (CSTONE PHARMACEUTICALS, priority 2017, dated 2021).

Structures are written as SMILES. Read-outs that look alike come from different tables or passages of the source.

One test addresses T1, activated MEK1 (Homo sapiens, UniProt Q02750).
T1 construct: purchased Millipore 14-429
Kind of test: MEK Lance Ultra experiment. The test is classed as biochemical. To be noted: 0.07 nM activated MEK1, 2 nM non-activated ERK, 50 μM ATP; read-out: MEK potency IC50. The protocol: Biological Test Method 1: MEK Lance Ultra Experiment Compounds were serially diluted three-fold to 10 concentrations, two duplicates were set. Final test concentrations of the compounds ranged from 10 μM to 0.51 nM. 0.07 nM activated MEK1 (Millipore #14-429) and 2 nM non-activated ERK (Millipore #14-515) were mixed with the compounds or DMSO, the mixture was incubated at 23° C. for 30 minutes. Then 50 nM ULight labeled MBP (PerkinElmer #TRF0109-M) and 50 μM ATP (Invitrogen #PV3227) were added to initiate the reaction, and the mixture was incubated at 23° C. for 90 minutes. After the reaction was stopped by adding EDTA at a final concentration of 15 mM, 2 nM Eu-labeled anti-phosphorylated antibody (PerkinElmer #TRF0201-M) was added and incubated for 1 hour. The fluorescence signal data (excitation band: 320 nm; emission band: 665 nM/615 nM) was determined by an Envision microplate reader (PerkinElmer). XLfit5 software was used for data analysis and mapping.

For another test, the system named is HT29 cells. Kind of test: Cell viability experiment (Cell Titer-Glo), HT29. The test is classed as cell-based, human. Here is the method: (§1) Biological Test Method 2: Cell Viability Experiment
(§2) HT29 and A375 cells were plated in a 96-well cell culture plate at a density of 40,000 cells/well and 20,000 cells/well respectively, and the cells were cultured overnight. The compounds were serially diluted in a gradient of 1:3, the dilutions were added to the cell culture medium, and incubated with the cells in a 37° C. incubator for 3 days. The 96-well cell culture plate was taken from the incubator and equilibrated at room temperature for 30 minutes, then Cell Titer-Glo reagent (Promega Cat #G7573) was added at a ratio of 1:2, and the mixture was mixed thoroughly on a shaker for 2 minutes to promote cell lysis. The cell culture plate was incubated at room temperature for 10 minutes and then read on an Envision microplate reader (PerkinElmer). XLfit5 software was used for data analysis and mapping.
(ATP-based viability assays read luminescence as a measure of living cells.)

Another test concerns A375 cells. Kind of test: Cell viability experiment (Cell Titer-Glo), A375. The test is classed as cell-based. The protocol: as §1, §2
Where [1] appears, read: Homo sapiens, HT-29, 72 h, HT29 cells, 3 days incubation; read-out: HT29 IC50.
Setting [2] is: Homo sapiens, A-375, 72 h, A375 cells, 3 days incubation; read-out: A375 IC50.
Where [3] appears, read: HT29 cells, 3 days incubation; read-out: HT29 IC50.
The mark [4] stands for this setting: A375 cells, 3 days incubation; read-out: A375 IC50.
Where [5] appears, read: read-out: HT29 IC50; HT29 cells, 3 days incubation.
[6] abbreviates: read-out: A375 IC50; A375 cells, 3 days incubation.

T1 sequence (Q02750 whole entry): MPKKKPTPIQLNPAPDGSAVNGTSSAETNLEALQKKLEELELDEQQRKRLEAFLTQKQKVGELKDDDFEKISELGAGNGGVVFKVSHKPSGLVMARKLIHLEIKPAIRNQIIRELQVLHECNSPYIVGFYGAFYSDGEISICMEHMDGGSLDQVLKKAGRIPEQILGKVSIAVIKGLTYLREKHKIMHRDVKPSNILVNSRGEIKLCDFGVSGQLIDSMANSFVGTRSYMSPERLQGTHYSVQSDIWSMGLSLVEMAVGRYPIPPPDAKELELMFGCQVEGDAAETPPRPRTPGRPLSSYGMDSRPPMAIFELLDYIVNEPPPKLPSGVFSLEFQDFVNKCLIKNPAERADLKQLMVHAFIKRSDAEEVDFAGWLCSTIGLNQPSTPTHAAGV

As to `Cc1c(Nc2ccc(I)cc2F)c2c(=O)n(C3CC3)c(C)c(-c3cccc(C[S+](C)[O-])c3)c2oc1=O` (single isomer, unassigned) [WX083], the IC50 worked out at 146 nM at activated MEK1, 10.5 nM in the test with HT29 cells (setting [1]) and 8.62 nM with A375 cells (setting [2]).
Consider `Cc1c(Nc2ccc(I)cc2F)c2c(=O)n(C3CC3)c(C)c(-c3cccc(C[S+](C)[O-])c3)c2oc1=O` (single isomer, unassigned) [WX084], for which the half-maximal inhibitory concentration (IC50) at activated MEK1 was 176 nM; in the test with HT29 cells (setting [3]) it was 17.4 nM; in the test with A375 cells (setting [4]), 6.18 nM.
`Cc1c(Nc2ccc(I)cc2F)c2c(=O)n(C3CC3)c(C)c(-c3cccc(NS(C)(=O)=O)c3Cl)c2oc1=O` (single isomer, unassigned) [WX116]: the figures for the IC50 at activated MEK1, in the test on HT29 cells (setting [5]) and with A375 cells (setting [6]) were 34.5 nM, 0.82 nM and 0.39 nM, respectively.
The like results for `Cc1c(Nc2ccc(I)cc2F)c2c(=O)n(C3CC3)c(C)c(-c3cccc(NS(C)(=O)=O)c3Cl)c2oc1=O` (single isomer, unassigned) [WX117] were, in that order, 424 nM, 18.7 nM and 7.18 nM.
For `Cc1[nH]c(=O)c2c(Nc3ccc(I)cc3F)c(C)c(=O)oc2c1-c1cccc(NS(C)(=O)=O)c1C` (single isomer, unassigned) [WX118], the half-maximal inhibitory concentration (IC50) on activated MEK1 amounted to 32.7 nM; with HT29 cells (setting [3]), 1.76 nM; in the test with A375 cells (setting [4]), 0.41 nM.
With `Cc1[nH]c(=O)c2c(Nc3ccc(I)cc3F)c(C)c(=O)oc2c1-c1cccc(NS(C)(=O)=O)c1C` (single isomer, unassigned) [WX119], the IC50 came out at 18.2 nM on activated MEK1, 19.3 nM in the test on HT29 cells (setting [3]) and 5.85 nM with A375 cells (setting [4]).
Regarding `Cc1c(Nc2ccc(I)cc2F)c2c(=O)n(C3CC3)c(C)cc2oc1=O` [WX035], the values for the IC50 at activated MEK1, in the test on HT29 cells (setting [1]) and in the test on A375 cells (setting [2]) were 111 nM, 98.8 nM and 32.9 nM, respectively.
For `CC(=O)Nc1ccc(C)c(-c2c(C)n(C3CC3)c(=O)c3c(Nc4ccc(I)cc4F)c(C)c(=O)oc23)c1` [WX036], in that order: 44.3 nM, 69 nM and 33.6 nM.
Consider `CC(=O)Nc1cccc(-c2c(C)n(C3CC3)c(=O)c3c(Nc4ccc(I)cc4F)c(C)c(=O)oc23)n1` [WX039], for which the IC50 at activated MEK1 was 52 nM; with HT29 cells (setting [1]) it was 4.27 nM; in the test with A375 cells (setting [2]) it was 1.61 nM.
On to `CC(=O)Nc1cccc(-c2c(C)n(C)c(=O)c3c(Nc4ccc(I)cc4F)c(C)c(=O)oc23)c1` [WX040], for which the IC50 is 581 nM at activated MEK1, 64.1 nM in the test on HT29 cells (setting [1]) and 69.7 nM in the test with A375 cells (setting [2]).
`CC(=O)Nc1ccc(F)c(-c2c(C)n(C3CC3)c(=O)c3c(Nc4ccc(I)cc4F)c(C)c(=O)oc23)c1` [WX048]: the IC50 is 581 nM at activated MEK1, 101 nM in the test with HT29 cells (setting [1]) and 52.6 nM in the test on A375 cells (setting [2]).
For `CC(=O)Nc1cccc(-c2c(C)[nH]c(=O)c3c(Nc4ccc(I)cc4F)c(C)c(=O)oc23)c1` [WX049], in that order: 67 nM, 7.4 nM and 3.08 nM.
The like results for `Cc1c(Nc2ccc(I)cc2F)c2c(=O)n(CC(O)CO)c(C)cc2oc1=O` (stereo not drawn) [WX053] were, in that order, 92.8 nM, 9.19 nM and 3.27 nM.
The like results for `CNCCn1c(C)c(-c2cccc(NC(C)=O)c2)c2oc(=O)c(C)c(Nc3ccc(I)cc3F)c2c1=O` [WX054] were, in that order, 81.5 nM, 334 nM and 484 nM.
With `CC(=O)Nc1cccc(-c2c(C)n(CCN(C)S(C)(=O)=O)c(=O)c3c(Nc4ccc(I)cc4F)c(C)c(=O)oc23)c1` [WX055], the IC50 on activated MEK1 is 71.1 nM; in the test with HT29 cells (setting [1]), 978 nM; in the test on A375 cells (setting [2]) it was 643 nM.
For `CC(=O)Nc1cccc(-c2c(C)n(CCN(C)C(C)=O)c(=O)c3c(Nc4ccc(I)cc4F)c(C)c(=O)oc23)c1` [WX056], in that order: 54.1 nM, 2820 nM and 1550 nM.
Regarding `COCCCn1c(C)cc2oc(=O)c(C)c(Nc3ccc(I)cc3F)c2c1=O` [WX057], the IC50 on activated MEK1 stood at 78 nM; in the test with HT29 cells (setting [1]), 72.5 nM; with A375 cells (setting [2]), 24.1 nM.
For `CC(=O)Nc1cccc(-c2c(C)n(CC(O)CO)c(=O)c3c(Nc4ccc(I)cc4F)c(C)c(=O)oc23)c1` (stereo not drawn) [WX058], the IC50 on activated MEK1 came out at 83 nM; with HT29 cells (setting [1]), 102 nM; with A375 cells (setting [2]), 91.1 nM.
For `CC(=O)Nc1cccc(-c2c(C)n(C3CCOCC3)c(=O)c3c(Nc4ccc(I)cc4F)c(C)c(=O)oc23)c1` [WX059], in that order: 32.4 nM, 923 nM and 1650 nM.
For `COCCn1c(C)cc2oc(=O)c(C)c(Nc3ccc(I)cc3F)c2c1=O` [WX060], in that order: 86.4 nM, 115 nM and 66.9 nM.
With `COCCn1c(C)c(-c2cccc(NC(C)=O)c2)c2oc(=O)c(C)c(Nc3ccc(I)cc3F)c2c1=O` [WX061], the IC50 at activated MEK1 was 57.5 nM; with HT29 cells (setting [1]), 446 nM; with A375 cells (setting [2]), 442 nM.
As for `COCCCn1c(C)c(-c2cccc(NC(C)=O)c2)c2oc(=O)c(C)c(Nc3ccc(I)cc3F)c2c1=O` [WX062], the IC50 is 68 nM at activated MEK1, 745 nM in the test on HT29 cells (setting [1]) and 631 nM in the test with A375 cells (setting [2]).
The like results for `Cc1c(Nc2ccc(I)cc2F)c2c(=O)n(C3CC3)c(C)c(-c3cccc(NC(=O)C4COC4)c3)c2oc1=O` [WX065] were, in that order, 36.2 nM, 7.38 nM and 4.31 nM.
For `Cc1c(Nc2ccc(I)cc2F)c2c(=O)n(C3CC3)c(C)c(-c3cccc(N(S(C)(=O)=O)S(C)(=O)=O)c3)c2oc1=O` [WX067], in that order: 199 nM, 75.3 nM and 25.1 nM.
The like results for `Cc1c(Nc2ccc(I)cc2F)c2c(=O)n(C3CC3)c(C)c(-c3cccc(C[S+](C)[O-])c3)c2oc1=O` (stereo not drawn) [WX068] were, in that order, 35 nM, 9.77 nM and 3.66 nM.
With `CC(=O)NCc1cccc(-c2c(C)n(C3CC3)c(=O)c3c(Nc4ccc(I)cc4F)c(C)c(=O)oc23)c1` [WX069], the IC50 on activated MEK1 is 41.6 nM; in the test with HT29 cells (setting [1]), 40.3 nM; in the test on A375 cells (setting [2]), 6.63 nM.
Take `Cc1c(Nc2ccc(I)cc2F)c2c(=O)n(C3CC3)c(C)c(-c3ccnc(N)c3)c2oc1=O` [WX079]: the IC50 on activated MEK1 was determined as 35.3 nM; in the test on HT29 cells (setting [1]), 5.52 nM; in the test with A375 cells (setting [2]), 3.23 nM.
For `COC(OC)C(=O)Nc1cccc(-c2c(C)n(C3CC3)c(=O)c3c(Nc4ccc(I)cc4F)c(C)c(=O)oc23)c1` [WX081], in that order: 105 nM, 13 nM and 5.26 nM.
For `CCS(=O)(=O)Nc1cccc(-c2c(C)n(C3CC3)c(=O)c3c(Nc4ccc(I)cc4F)c(C)c(=O)oc23)c1` [WX082], in that order: 97.4 nM, 3.93 nM and 1.75 nM.
The like results for `Cc1c(Nc2ccc(I)cc2F)c2c(=O)n(C3CC3)c(C)c(-c3cccc(NC(=O)N4CCOCC4)c3)c2oc1=O` [WX085] were, in that order, 118 nM, 9.34 nM and 4.65 nM.
On to `COCCNc1cccc(-c2c(C)n(C3CC3)c(=O)c3c(Nc4ccc(I)cc4F)c(C)c(=O)oc23)c1` [WX087], for which the IC50 at activated MEK1 is 152 nM; in the test with HT29 cells (setting [1]) it was 23.7 nM; in the test on A375 cells (setting [2]), 9.42 nM.
For `Cc1c(Nc2ccc(I)cc2F)c2c(=O)n(C3CC3)c(C)c(-c3cccc(CNS(C)(=O)=O)c3)c2oc1=O` [WX088], in that order: 45.4 nM, 4.59 nM and 2.13 nM.
The like results for `Cc1c(Nc2ccc(I)cc2F)c2c(=O)n(C3CC3)c(C)c(-c3cccc(NS(=O)(=O)C4CC4)c3)c2oc1=O` [WX089] were, in that order, 61.1 nM, 1.32 nM and 0.47 nM.
For `Cc1c(Nc2ccc(I)cc2F)c2c(=O)n(C3CC3)c(C)c(-c3cccc(N[S+]([O-])C(C)(C)C)c3)c2oc1=O` (stereo not drawn) [WX091], in that order: 128 nM, 35.6 nM and 10.1 nM.
As to `Cc1c(Nc2ccc(I)cc2F)c2c(=O)n(C3CC3)c(C)c(-c3cccc(CNS(N)(=O)=O)c3)c2oc1=O` [WX092], the IC50 came to 178 nM on activated MEK1, 8.96 nM in the test with HT29 cells (setting [1]) and 7.54 nM in the test with A375 cells (setting [2]).
`Cc1c(Nc2ccc(I)cc2F)c2c(=O)n(C3CC3)c(C)c(-c3cccc(NCCO)c3)c2oc1=O` [WX093]: the results for the IC50 on activated MEK1, with HT29 cells (setting [1]) and in the test with A375 cells (setting [2]) were 110 nM, 23.4 nM and 8.8 nM, respectively.
